Experimental data from publication PMC11571207, “Stereorandomized Oncocins with Preserved Ribosome Binding and Antibacterial Activity” (Journal of Medicinal Chemistry, 2024).
Non-standard residues stand in square brackets, D forms with d. Residues, ends and D or L forms follow the SMILES beside them. Orn = NCCC[C@H](N)C(=O)O

Tests used:
[1] = 25% (v/v) human serum in 0.1 M TRIS buffer pH 7.4, peptide 200 μM, 37 °C, 0/24/48/72 h, LC-MS UV trace vs 4-hydroxybenzoic acid internal standard, n = 3
Experimental: Human serum was diluted in 0.1 M filtered TRIS buffer pH 7.4 (50%, 1:1, v/v). Selected peptides were diluted in 0.1 M filtered TRIS buffer pH 7.4 to a concentration of 400 μM and 0.1 mg/mL 4- hydroxybenzoic acid was added as internal standard. Aliquots of peptide solution (300 μL) were added to aliquots of serum (300 μL) in sterile 1.5 mL Eppendorf tubes, to reach a peptide concentration of 200 μM and 25% (v/v) human serum during the assay. Samples, in triplicate, were incubated at 37 °C under gentle stirri ng (200 rpm). At different time points (0, 24, 48 and 72 hours), 100 μL of each sample was collected and quenched by precipitating serum proteins through the addition of (0.1 M) ZnSO4·7 H2O / ACN (1:1) (0.1 M, 100 μL) and cooling in ice bath for 10 minutes. Protein precipitates were pelleted under centrifugation (5 min at 14’000 rpm) and the supernatants were analysed by LC-MS. Peaks corresponding to the internal standard and the undegraded peptides were integrated from the area under the curves (AUC) of UV traces, with the ratio peptide/standard at t = 0 h as 100%.
Figure S7. Serum stability assay of the respective compound (200 μM), incubated with human serum (25% in TRIS buffer, 0.1 M, pH 7.4) at 37 °C. Aliquots were taken at different time (0 / 24 / 48 and 72 h). Undegraded peptide values determined by RP -HPLC analysis usi ng hydroxybenzoic acid as internal standard. Measured in triplicates and the data represent mean ± SD, n […]
(1 picture or pasted object on this page, not shown here)

[2] = test system: human red blood cells; conditions: red cells of human, 6 h
[3] = target: chaperone DnaK (His-tagged) (UniProt P0A6Y8); experiment: MST; 16 two-fold dilutions of L-Onc from a maximum of 100 μM, mixed 1:1 with 40 nM His-Tag-labeled DnaK; MST buffer (50 mM TRIS, 150 mM NaCl, 10 mM MgCl2, Tween 20 0.05%); Monolith NT.115; apparent
Chain of chaperone DnaK (His-tagged) (P0A6Y8 whole entry): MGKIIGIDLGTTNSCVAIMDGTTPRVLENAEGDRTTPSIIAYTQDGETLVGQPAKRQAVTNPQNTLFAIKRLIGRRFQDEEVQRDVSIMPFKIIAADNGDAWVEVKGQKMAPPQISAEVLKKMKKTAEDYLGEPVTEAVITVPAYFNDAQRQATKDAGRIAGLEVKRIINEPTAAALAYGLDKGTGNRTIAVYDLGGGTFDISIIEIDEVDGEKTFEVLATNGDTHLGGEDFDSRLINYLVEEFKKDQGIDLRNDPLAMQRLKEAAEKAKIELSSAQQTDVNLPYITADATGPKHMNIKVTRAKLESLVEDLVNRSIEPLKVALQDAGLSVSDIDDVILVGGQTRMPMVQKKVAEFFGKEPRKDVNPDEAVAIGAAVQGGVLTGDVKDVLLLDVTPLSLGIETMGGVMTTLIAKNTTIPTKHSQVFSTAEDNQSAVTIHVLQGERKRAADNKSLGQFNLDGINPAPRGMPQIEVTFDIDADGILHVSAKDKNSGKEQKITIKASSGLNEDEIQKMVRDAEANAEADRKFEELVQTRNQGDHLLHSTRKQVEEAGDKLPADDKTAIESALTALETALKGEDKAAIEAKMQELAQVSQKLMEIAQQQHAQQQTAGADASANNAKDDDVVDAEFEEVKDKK

Row | Kd [3] [µM] | Molecule | Serum stability (undegraded peptide) [1] | MHC human red blood cells [2] [µg/mL]
1 |  | CC[C@H](C)[C@H](NC(=O)[C@H](CCCN)NC(=O)[C@H](CCCNC(=N)N)NC(=O)[C@@H]1CCCN1C(=O)[C@@H]1CCCN1C(=O)[C@H](CCCNC(=N)N)NC(=O)[C@@H]1CCCN1C(=O)[C@H](CCCNC(=N)N)NC(=O)[C@@H]1CCCN1C(=O)[C@H](CC(C)C)NC(=O)[C@H](Cc1ccc(O)cc1)NC(=O)[C@@H]1CCCN1C(=O)[C@@H]1CCCN1C(=O)[C@H](CCCCN)NC(=O)[C@H](CC(=O)O)NC(=O)[C@@H](N)C(C)C)C(=O)N[C@@H](Cc1ccc(O)cc1)C(=O)N[C@@H](CC(N)=O)C(=O)N[C@@H](CCCN)C(N)=O [Onc72] (H-VDKPPYLPRPRPPR[Orn]IYN[Orn]-NH2) | essentially stable to degradation over 24 h | >1000
2 | 30 | oncocin (L-oncocin) (peptide) |  | 
